Test results published in PMC8659031, “Substituted Aryl Benzylamines as Potent and Selective Inhibitors of 17β-Hydroxysteroid Dehydrogenase Type 3” (Molecules, 2021).
pIC50: −log10 of the molar value. Entries after “also recorded” stand apart in the source; their conditions may differ. Where two headings read alike, the source gives them in different places.

How the values were obtained:
[1] = biological target: T1, 17β-HSD3 (Homo sapiens, UniProt P37058); assay: Assay for 17β-HSD3 activity (TLC assay) in 293-EBNA cells stably transfected with 17β-HSD3; assay type: cell-based; conditions: for inhibition at 10 µM: 293-EBNA; for pIC50: 293-EBNA[HSD3] cells, read-out: IC50 (17β-HSD3)
T1 construct: expressed in transfected cells; host or cells: human 293-EBNA cells, stably transfected
T1 sequence (P37058 1-310): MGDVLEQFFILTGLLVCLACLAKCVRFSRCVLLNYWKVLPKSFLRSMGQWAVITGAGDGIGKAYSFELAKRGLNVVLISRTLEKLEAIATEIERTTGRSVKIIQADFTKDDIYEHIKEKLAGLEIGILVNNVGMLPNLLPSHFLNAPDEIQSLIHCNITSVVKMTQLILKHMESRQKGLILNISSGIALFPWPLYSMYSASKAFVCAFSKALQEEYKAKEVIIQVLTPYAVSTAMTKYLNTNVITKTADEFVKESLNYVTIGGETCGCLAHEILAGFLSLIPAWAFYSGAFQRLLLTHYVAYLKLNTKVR
Method: Human 293-EBNA cells stably transfected with 17β-HSD3 were plated at 50,000 cells/well in 24 well plates in complete growth medium. After 48 h 2–3 nM [^3H]-androstenedione in assay medium (500 mL DMEM medium with 5 mL 100 × L-glutamine and 5 mL 7.5% sodium bicarbonate solution) was added with or without test compound at 1.5 mL/well (triplicate), and the cells incubated at 37 °C. Two hours later 1 mL medium was removed from each well and placed in a 125 × 16 mm glass test tube containing 25 µL of recovery solution (5000 dpm ^14C-testosterone and 25 µg unlabelled testosterone […], and the tubes vortexed at high speed for 2 × 30 s. After the samples had settled into two phases, they were snap-frozen in a dry ice/methanol bath. The upper organic phase was decanted into 75 × 12 mm tubes and evaporated to dryness under an airstream using a sample concentrator (TECHNE) at 40 °C. The samples were resuspended in ether (8 drops, then a further 3), spotted onto ca 60 F254 20 cm × 20 cm TLC plates and separated using a 4:1 v/v dichloromethane: ethyl acetate mobile phase. After drying the plates, the major spots were marked under a UV lamp, cut out and placed in individual scintillation vials containing 0.5 mL methanol. These were then shaken lightly and allowed to stand for 15 min before adding 10 mL of EcoScintA (scintillation fluid) to each tube along with 0.5 mL assay medium and counted in a scintillation spectrometer (Beckman, High Wycombe, Bucks, UK), using a program for duel [^3H/^14C] isotopes. The number of cells/well was then counted using a Coulter10 counter (Beckman). The inhibitory activity of the test compounds was then assessed by calculating the amount of product formed correcting for crossover between isotope counts, recovery, dilution and non-enzymatic degradation fmol/hr/million cells) with and without inhibitor (% inhibition).

[2] = Compound toxicity, MTS/Alamar Blue proliferation assay, PC-3; assay type: cell-based; conditions: human, PC-3 (AR-) prostate cancer cells; PC3 (AR-); read-out: Cytotoxicity IC50 (µM) PC3 (AR-)
Method: (§1) AR+ (LNCaP) and AR- (PC-3) PCa cell lines were used as standard lines to determine the cytotoxicity of HSD3 inhibitor compounds. Toxicity was assessed over 96 h in 96 well plates using the standard MTS/Alamar Blue proliferation assay and over longer durations by cell counting methodologies.

[3] = Compound toxicity, MTS/Alamar Blue proliferation assay, LNCaP; assay type: cell-based; conditions: human, LNCaP (AR+) prostate cancer cells; read-out: Cytotoxicity IC50 (µM) LNCaP (AR+)
Method: as §1

[4] = 10 μM, TLC assay, mean of at least two measurements, typically SD ±5%

| Compound | melting point | inhibition at 10 µM [1, 4] | 17β-HSD3 inhibitory activity in words [1] | other results |
| --- | --- | --- | --- | --- |
| CC(=O)Nc1c(CNc2ccccc2Oc2ccc(Cl)cc2)ccc2ccccc12 [Compound 7, N-(2-[2-(4-Chloro-phenoxy)-phenylamino]-methyl-naphthalen-1-yl)-acetamide] | 153 to 155 °C | < 20% | – | – |
| CC(=O)N(C)c1ccccc1CN(C)c1ccccc1Oc1ccc(Cl)cc1 [Compound 15, N-[2-(([2-(4-Chloro-phenoxy)-phenyl]-methyl-amino)-methyl)-phenyl]-N-methyl-acetamide] | – | 60 to 70% | weakly active | – |
| CC(=O)Nc1ccc(CNc2ccccc2Oc2ccc(Cl)cc2)cc1 [Compound 18, N-(4-([2-(4-Chloro-phenoxy)-phenylamino]-methyl)-phenyl)-acetamide] | 137 to 139 °C | 29% | – | – |
| CCNc1ccccc1C(C)Nc1ccccc1Oc1ccc(Cl)cc1 (stereo not shown) [Compound 25, N-(2–1-[2-(4-Chloro-phenoxy)-phenylamino]-ethyl-phenyl)-ethylamine] | – | 20 to 60% | – | – |
| COc1cc(CNc2ccccc2Oc2ccc(Cl)cc2)c(NC(C)=O)cc1OC [Compound 5, N-(2-[2-(4-Chloro-phenoxy)-phenylamino]-methyl-4,5-dimethoxy-phenyl)-acetamide] | 117 to 118 °C | < 20% | activity was lost; also recorded: inactive | – |
| CC(=O)N1Cc2ccccc2CSc2ccccc21 [BMS Dibenzazocine] | – | – | – | IC50 ([1]; Table 11, read-out: HSD3 Activity (IC50 nM)): 8.6 nM; IC50 at 96 h [2]: > 50 µM; IC50 at 96 h [3]: 19.4 µM |
| 1-[4-(2-[2-(4-Chloro-phenoxy)-phenylamino]-methyl-phenylamino)-piperidin-1-yl]-ethanone [Compound 21] | – | – | – | % Inhibition at 10 μM (17β-HSD3) [1, 4]: 36% |
| CC(=O)Nc1ccccc1CNc1ccccc1Oc1ccc(OC(F)(F)F)cc1 [Compound 2, N-(2-([2-(4-Trifluoromethoxy-phenoxy)-phenylamino]-methyl)-phenyl)-acetamide] | 98 to 100 °C | 60 to 70% | – | – |
| COc1cc(CNc2ccccc2Oc2ccc(Cl)cc2Cl)c(NC(C)=O)cc1OC [Compound 6, N-(2-([2-(2,4-Dichloro-phenoxy)-phenylamino]-methyl)-4,5-dimethoxy-phenyl)-acetamide] | 128 to 131 °C | < 20% | activity was lost; also recorded: inactive | – |
| CC(=O)Nc1cccc(CNc2ccccc2Oc2ccc(Cl)cc2)c1 [Compound 20, N-(3-[2-(4-Chloro-phenoxy)-phenylamino]-methyl-phenyl)-acetamide] | 187 to 190 °C | 53% | – | – |
| CC(=O)N1CCC(C(=O)Nc2cccc(CNc3ccccc3Oc3ccc(Cl)cc3)c2)CC1 [Compound 24, 1-Acetyl-piperidine-4-carboxylic acid (3-[2-(4-chloro-phenoxy)-phenylamino]-methyl-phenyl)-amide] | – | 97% | – | pIC50 ([1]; TLC assay): 5.96 |
| CC(=O)Nc1ccc(Cl)cc1CNc1ccccc1Oc1ccc(Cl)cc1Cl [Compound 10, N-(4-Chloro-2-[2-(2,4-dichloro-phenoxy)-phenylamino]-methyl-phenyl)-acetamide] | 135 to 137 °C | < 20% | – | – |
| CC(=O)N1CCC(Nc2ccccc2CN(C(C)=O)c2ccccc2Oc2ccc(Cl)cc2)CC1 [Compound 22, N-[2-(1-Acetyl-piperidin-4-ylamino)-benzyl]-N-[2-(4-chloro-phenoxy)-phenyl]-acetamide] | – | 55% | – | – |
| CC(=O)N(C)c1ccccc1CNc1ccccc1Oc1ccc(Cl)cc1 [Compound 14, N-(2-([2-(4-Chloro-phenoxy)-phenylamino]-methyl)-phenyl)-N-methyl-acetamide] | – | – | – | pIC50 ([1]; TLC assay): 6.34 |
| CC(=O)Nc1ccc(Cl)cc1CNc1ccccc1Oc1ccc(Cl)cc1 [Compound 9, N-(4-Chloro-2-[2-(4-chloro-phenoxy)-phenylamino]-methyl-phenyl)-acetamide] | – | 97% | – | pIC50 ([1]; TLC assay): 5.72 |
| CC(=O)Nc1ccccc1CNc1cc(F)ccc1Oc1ccc(Cl)cc1 [Compound 3, N-(2-([2-(4-Chloro-phenoxy)-5′-fluoro-phenylamino]-methyl)-phenyl)-acetamide] | 178 to 180 °C | 60 to 70% | – | – |
| CC(=O)Nc1ccccc1CN(C(C)=O)c1ccccc1Oc1ccc(Cl)cc1 [Compound 17, N-(2-Acetylamino-benzyl)-N-[2-(4-chloro-phenoxy)-phenyl]-acetamide] | – | < 20% | inactive | – |
| CC(=O)Nc1ccc(CNc2ccccc2Oc2ccc(Cl)cc2Cl)cc1 [Compound 19, N-(4-([2-(2,4-Dichloro-phenoxy)-phenylamino]-methyl)-phenyl)-acetamide] | – | < 20% | inactive | – |
| CC(=O)Nc1ccccc1CN(C)c1ccccc1Oc1ccc(Cl)cc1 [Compound 16, N-[2-(([2-(4-Chloro-phenoxy)-phenyl]-methyl-amino)-methyl)-phenyl]-acetamide] | – | < 20% | inactive | – |
| C=CCC(Nc1ccccc1Oc1ccc(Cl)cc1)c1ccccc1NC(C)=O (stereo not shown) [Compound 26] | – | 20 to 60% | – | pIC50 ([1]; TLC assay): 6.28 |
| CC(=O)Nc1ccccc1C(C)Nc1ccccc1Oc1ccc(Cl)cc1 (stereo not shown) [Compound 29, N-(2-(1-[2-(4-Chloro-phenoxy)-phenylamino]-ethyl)-phenyl)-acetamide] | – | – | – | pIC50 ([1]; TLC assay): 7.12; IC50 at 96 h [2]: 18.3 µM; IC50 at 96 h [3]: 14.6 µM |
| CCCC(Nc1ccccc1Oc1ccc(Cl)cc1)c1ccccc1NC(C)=O (stereo not shown) [Compound 28, N-(2-(1-[2-(4-Chloro-phenoxy)-phenylamino]-butyl)-phenyl)-acetamide] | – | – | – | pIC50 ([1]; TLC assay): 6.43 |
| CC(=O)Nc1ccccc1C(Cc1ccccc1)Nc1ccccc1Oc1ccc(Cl)cc1 (stereo not shown) [Compound 27, N-(2-(1-[2-(4-Chloro-phenoxy)-phenylamino]-2-phenyl-ethyl)-phenyl)-acetamide] | – | < 20% | – | – |
| CC(=O)Nc1ccc(C)cc1CNc1ccccc1Oc1ccc(Cl)cc1 [Compound 8, N-(2-[2-(4-Chloro-phenoxy)-phenylamino]-methyl-4-methyl-phenyl)-acetamide] | 138 to 140 °C | 60 to 70% | – | – |
| CC(=O)Nc1ccc(Cl)cc1CNc1ccccc1Oc1ccc(OC(F)(F)F)cc1 [Compound 11, N-(4-Chloro-2-[2-(4-trifluoromethoxy-phenoxy)-phenylamino]-methyl-phenyl)-acetamide] | 121 to 123 °C | – | good activity | – |
| CC(=O)Nc1cc2c(cc1CNc1ccccc1Oc1ccc(Cl)cc1)OCO2 [Compound 4, N-(6-[2-(4-Chloro-phenoxy)-phenylamino]-methyl-benzo[1,3]dioxol-5-yl)-acetamide] | 154 to 156 °C | 86% | good activity; also recorded: active | pIC50 ([1]; TLC assay): 6.35 |
| C=CC[C@H](Nc1ccccc1Oc1ccc(Cl)cc1)c1ccccc1NC(C)=O [Compound 32, S-(+)-N-(2-(1-[2-(4-Chloro-phenoxy)-phenylamino]-but-2-enyl)-phenyl)-acetamide] | 139 to 141 °C | – | active | pIC50 ([1]; TLC assay): 6.43 |
